Tested on: Akkermansia muciniphila BCRC 81048 strain
Assay: Prebiotic test for A. muciniphila (single candidate prebiotics, plate count)
Type: cell-based
Settings: 1% (w/w) candidate prebiotic in BHI medium, 48 h anaerobic incubation at 37° C.; control group = 100%
Description: The Akkermansia muciniphila used in the Examples described herein is the Akkermansia muciniphila BCRC 81048 strain purchased from BCRC at the Food Industry Research and Development Institute (also deposited under ATCC BAA-835). For subsequent use in the prebiotic test, the A. muciniphila strain, after thawed and activation, was inoculated at 3% and pre-cultured in BHI medium (15 g BD Difco Brain Heart Infusion broth (Thermo Fischer Scientific) dissolved in 1 L deionized water at a pH value of about 7.0) at 37° C. under an anaerobic condition (10% carbon dioxide, 10% hydrogen, and 80% nitrogen) for 48 hours.
In order to identify the nutrients beneficial to the growth of A. muciniphila, pre-cultured A. muciniphila was inoculated at 3% in BHI medium containing 1% (w/w) of the candidate prebiotics and incubated at 37° C. under anaerobic conditions for 48 hours. The bacterial culture was then spread on BHI agar plates and incubated for 72 hours for bacterial counting. The candidate prebiotic was selected from xylooligosaccharides, isomaltooligosaccharides, lactitol, inulin, fructooligosaccharides, and a banana ferment. For comparison, A. muciniphila was alternatively incubated in BHI medium without candidate prebiotics (control group).

Molecule | relative bacterial count of A. muciniphila
inulin | about 110%
OC[C@@H](O)[C@@H](O[C@@H]1O[C@H](CO)[C@H](O)[C@H](O)[C@H]1O)[C@H](O)[C@@H](O)CO [lactitol] | ~258%

Reference: patent US20210023159A1, “METHOD FOR PROMOTING GROWTH OF AKKERMANSIA MUCINIPHILA USING MUSA FERMENTS” (TCI CO., LTD., priority 2019, published 2021)
